# Paper PMC10714400, “Antimicrobial Peptide–Peptoid Hybrids with and without Membrane Disruption” (ACS Infectious Diseases, 2023)
# Entries after “also recorded” stand apart in the source; their conditions may differ. Like-named read-outs stand apart in the source and are kept apart here. Where a SMILES comes first, the peptide text is derived from it. [ ]: non-standard residue; d: D form. Nleu = CC(C)CNCC(=O)O; Nlys = NCCCCNCC(=O)O
# Experiments:
# [1] = system: HEK293 cells; experiment: Cell viability assay by Alamar blue; conditions: for IC50: read-out: Toxicity on HEK293 cells, CSV
# Protocol: The data are represented as the mean value ± SD, n = 3. […] (c) Vesicle leakage assay for a selection of compounds. Lipid vesicles made of EYPG or EYPC were suspended in a buffer (10 mM TRIS, 107 mM NaCl, pH 7.4). After 45 s, the indicated compound was added to reach the desired concentration. After 240 s, 30 μL of 1.2% TritonX-100 was added for full fluorescein release. […] See Supporting Information for the full curves, all of the data, and procedures.
# HEK293 cells were cultured and maintained in DMEM high glucose (Dulbecco’s modified Eagle medium, Sigma Aldrich) medium supplemented with 10% FBS (Sigma Aldrich) and 1% penicillin/streptomycin. A549 cells were cultured and maintained in RPMI-1640 medium (Sigma Aldrich), supplemented with 10% FBS (Sigma Aldrich) and 1% penicillin/streptomycin. The cells were handled and subcultured according to the manufacturer instructions. Cells were incubated in a humidified incubator at 37 °C in the presence of 5% CO2.
# Assays on HEK293, A549 cells were performed as described earlier.[74] […]
# [2] = Lipid vesicle leakage assay; conditions: 10 mM TRIS, 107 mM NaCl, pH 7.4; for Vesicle leakage activity on EYPC vesicles: egg yolk phosphatidyl choline vesicles; for Vesicle leakage activity on EYPG vesicles: fluorescein-loaded anionic EYPG vesicles
# Protocol: (c) Vesicle leakage assay for a selection of compounds.
# EYPG - EB11 1 EYPC - EB11
# Figure S2: Vesicle leakage experiments using 5(6)-carboxyfluorescein induced by peptides. EYPG and EYPC
# compound was added after 45 sec. After 240 seconds, 30 µL Triton X-100 1.2% was added for full release of […]
# [3] = system: E. coli W3110; experiment: Time–kill assay; type: cell-based, Escherichia coli
# Excerpt: (§1) Figure 1 Killing profile of selected compounds on bacteria a) against E. coli W3110 measured in full MH at pH 7.4, b) against P. aeruginosa PAO1 in full MH at pH 7.4, c) against E. coli W3110 in diluted MH at pH 8.5, and d) against P. aeruginosa PAO1 in dilute MH at pH 8.5. The assay was repeated twice in triplicate, and the data represent the mean ± SD, n = 6.
# [4] = system: P. aeruginosa PAO1; experiment: Time–kill assay; type: cell-based, Pseudomonas aeruginosa
# Excerpt: as §1
# [5] = system: P. aeruginosa PAO1; experiment: NPN outer membrane permeability assay; type: cell-based, Pseudomonas aeruginosa
# Protocol: (§2) Figure 5 Interactions of peptide–peptoid hybrids with bacterial outer and inner membranes of P. aeruginosa. (a, b) NPN outer membrane permeability assay. P. aeruginosa PAO1 bacteria were treated with increasing compound concentrations in the presence of 10 μM NPN. The fluorescence intensity (λex = 340 nm, λem = 415 nm) was measured within 5 min. Data represent the mean ± SD, n = 3. (c, d) DiSC3(5) inner membrane depolarization assay. P. aeruginosa PAO1 cells were treated with increasing compound concentrations in the presence of 2 μM DiSC3(5). The fluorescence intensity (λex = 610 nm, λem = 660 nm) was measured within 5 min after treatment, and the data represent mean ± SD, n = 3.
# A single colony of P. aeruginosa PAO1 and E. coli W3110 was grown overnight while being shaken (150 rpm) in LB-broth (5 mL) at 37 °C. 100 μL of the overnight culture was regrown in 10 mL of LB broth with shaking (200 rpm) to the exponential phase (OD600 = 1, corresponding to 10^9 CFU/mL). Bacteria were washed three times with HEPES buffer (5 mM HEPES, 5 mM glucose, pH 7.4), but not diluted yet to their final concentration. 200 μL of peptide samples was added to the first well of 96-well plates (black wells, flat bottom, BRAND GmbH Wertheim, Germany), 100 μL of HEPES/glucose buffer with 10 μM N-phenyl-1-naphthylamine (NPN, purchased from Acros Organics) was added in all the wells, and the compounds were diluted serially by 1/2 (add a control with a final volume of 200 μL with 10 μM NPN in buffer only). Ca. 10 min before the measurement and the final dilution of the bacteria, the plates and the 10 μM NPN in HEPES/glucose buffer (for bacteria dilution) were incubated at 37 °C (prior to the dilution of the bacteria with buffer containing NPN 10 μM). Later, the bacteria were diluted to OD600 = 0.5 with the NPN in HEPES/glucose buffer. 100 μL of the bacterial suspension was added to each well. In this case, the final OD of bacteria was 0.25, the final concentration of the desired compound 64 μg/mL, and NPN 10 μM. The control wells are buffer containing NPN (10 μM, 200 μL) and bacterial suspension containing NPN in HEPES buffer. The plate was measured with a Tecan instrument Infinite M1000 within 5 min. The plate was enabled to shake for 5 s before measurement. The excitation wavelength used was 340 ± 5 nm, and emission wavelength was 415 ± 5 nm. The assay was repeated at least three times.
# [6] = system: P. aeruginosa PAO1; experiment: DiSC3(5) inner membrane depolarization assay; type: cell-based, Pseudomonas aeruginosa; conditions: P. aeruginosa PAO1, 2 μM DiSC3(5)
# Protocol: as §2
# A single colony of P. aeruginosa PAO1 and E. coli W3110 was grown overnight with shaking (150 rpm) in LB broth (5 mL) at 37 °C. A 100 μL portion of the overnight culture was regrown in 10 mL of LB broth with shaking (200 rpm) to the exponential phase (OD600 = 1, corresponding to 10^9 CFU/mL). Bacteria were washed once with HEPES buffer (5 mM HEPES, 5 mM glucose, pH 7.4) and diluted to an OD600 = 0.5. Stock solution of 10 mM of 3,3′-dipropylthiadicarbocyanine iodide (DiSC3(5), purchased from Sigma) was prepared in DMSO. Stock solutions of 2 mg/mL of the compounds were prepared in sterilized milli-Q water and diluted to the beginning concentration of 128 μg/mL in 200 μL of HEPES buffer containing 4 μM of the fluorescent probe DiSC3(5). The diluted samples were added to the first well of 96-well plates (black wells, flat bottom, BRAND GmbH Wertheim, Germany) and diluted serially by 1/2. 100 μL of the bacterial suspension in HEPES buffer (without fluorophore) was added to each well. In this case, the final OD of bacteria was 0.25, the final concentration of peptide in the first column was 64 μg/mL, and DiSC3(5) was 2 μM. The control wells are buffer containing DiSC3(5) and bacterial suspension containing DiSC3(5) in HEPES buffer. The plate was measured with a Tecan instrument Infinite M1000 within 5 min. […] The assay was measured in triplicate and repeated at least two times.[65],[75]
# [7] = E. coli W3110, diluted MH at pH 8.5
# [8] = P. aeruginosa PAO1, dilute MH at pH 8.5
Molecule,IC50 [1] [µM],Vesicle leakage activity on EYPC vesicles [2],Vesicle leakage activity on EYPG vesicles [2],Outer membrane permeabilization (NPN) ([5]; not told),Inner membrane depolarization (DiSC3(5)) [6],other results
"CC(C)C[C@H](NC(=O)[C@H](CC(C)C)NC(=O)[C@H](CC(C)C)NC(=O)[C@H](CCCCN)NC(=O)[C@H](CC(C)C)NC(=O)[C@H](CC(C)C)NC(=O)CN(CCCCN)C(=O)[C@H](CC(C)C)NC(=O)[C@H](CC(C)C)NC(=O)CN(CCCCN)C(=O)CNCCCCN)C(N)=O [EB6, kkLLkLLKLLL] (H-[Nlys][Nlys]LL[Nlys]LLKLLL-NH2)",54 ± 1,very low levels of activity,very strong activities,permeabilized the outer membrane,strongly depolarized the inner membrane,"Time–kill, killing profile ([3]; E. coli W3110, full MH at pH 7.4): completely killed; Time–kill, killing profile ([4]; P. aeruginosa PAO1, full MH at pH 7.4): completely killed"
"CC(C)C[C@H](NC(=O)CN(CC(C)C)C(=O)[C@H](CC(C)C)NC(=O)CN(CCCCN)C(=O)[C@H](CC(C)C)NC(=O)CN(CC(C)C)C(=O)[C@H](CCCCN)NC(=O)CN(CC(C)C)C(=O)[C@H](CC(C)C)NC(=O)CN(CCCCN)C(=O)[C@@H](N)CCCCN)C(N)=O [EB9, KkLlKlLkLlL] (H-K[Nlys]L[Nleu]K[Nleu]L[Nlys]L[Nleu]L-NH2)",> 200,no activity,weak or no vesicle leakage activity; also recorded: inactive,significant outer membrane permeabilization,partly depolarized the inner membrane,"Toxicity against HEK293 cells, no effect detected up to [1]: > 200 µM; Time–kill, killing profile [3, 7]: Bacteria could still be detected after 6 h; Time–kill, killing profile [4, 8]: killed P. aeruginosa, however at a rather slow rate"
"CC(C)CN(CC(N)=O)C(=O)CN(CC(C)C)C(=O)CN(CC(C)C)C(=O)CN(CCCCN)C(=O)CN(CC(C)C)C(=O)CN(CC(C)C)C(=O)CN(CCCCN)C(=O)CN(CC(C)C)C(=O)CN(CC(C)C)C(=O)CN(CCCCN)C(=O)CNCCCCN [EB11, kkllkllklll] (H-[Nlys][Nlys][Nleu][Nleu][Nlys][Nleu][Nleu][Nlys][Nleu][Nleu][Nleu]-NH2)",> 200,no activity,weak or no vesicle leakage activity,,partly depolarized the inner membrane,"Toxicity against HEK293 cells, no effect detected up to ([1]; Alamar blue, 24 h): > 200 µM; Time–kill, killing profile [3, 7]: Bacteria could still be detected after 6 h; Time–kill, killing profile [4, 8]: killed P. aeruginosa, however at a rather slow rate; Outer membrane permeabilization (NPN) ([5]; P. aeruginosa PAO1, 10 μM NPN): significant outer membrane permeabilization"
"H-KKLLKLLKLLL-NH2 [ln65, reference compound]",27 ± 6,,,,,
CC(C)C[C@H](NC(=O)[C@H](CCCCN)NC(=O)CNCCCCN)C(=O)N[C@@H](CC(C)C)C(=O)N[C@@H](CCCCN)C(=O)N[C@@H](CC(C)C)C(=O)N[C@@H](CC(C)C)C(=O)N[C@@H](CCCCN)C(=O)N[C@@H](CC(C)C)C(=O)N[C@@H](CC(C)C)C(=O)N(CC(N)=O)CC(C)C [EB1] (H-[Nlys]KLLKLLKLL[Nleu]-NH2; N-terminus assumed),110 ± 6,very low levels of activity,very strong activities,,,
"CC(C)C[C@H](NC(=O)[C@H](CC(C)C)NC(=O)[C@H](CC(C)C)NC(=O)[C@H](CCCCN)NC(=O)[C@H](CC(C)C)NC(=O)[C@H](CC(C)C)NC(=O)CN(CCCCN)C(=O)CN(CC(C)C)C(=O)CN(CC(C)C)C(=O)CN(CCCCN)C(=O)CNCCCCN)C(N)=O [EB5, kkllkLLKLLL] (H-[Nlys][Nlys][Nleu][Nleu][Nlys]LLKLLL-NH2)",,,,permeabilized the outer membrane,,
"CC(C)C[C@H](NC(=O)[C@H](CC(C)C)NC(=O)[C@H](CC(C)C)NC(=O)[C@@H](CCCCN)NC(=O)[C@H](CC(C)C)NC(=O)[C@H](CC(C)C)NC(=O)[C@@H](CCCCN)NC(=O)[C@H](CC(C)C)NC(=O)[C@H](CC(C)C)NC(=O)[C@@H](CCCCN)NC(=O)[C@H](N)CCCCN)C(N)=O [ln69, kkLLkLLkLLL, reference compound] (H-[dK][dK]LL[dK]LL[dK]LLL-NH2)",45 ± 9,,,,,
